Source: ChEMBL document CHEMBL4477252, “Optimization of microtubule affinity regulating kinase (MARK) inhibitors with improved physical properties” (Bioorg Med Chem Lett, 2016)
Converted amounts (≈) assume the structure as drawn.

Legend:
[1] = target: MAP/microtubule affinity-regulating kinase 3 (Homo sapiens, UniProt P27448); assay: Inhibition of full-length recombinant human GST-tagged MARK3 expressed in baculovirus expression system using biotinylated-Cdc25C peptide substrate measured after 2 hrs by HTRF assay
[2] = Solubility of the compound at pH 7; type: physicochemical; conditions: buffer
[3] = Clearance in Sprague-Dawley rat at 1 mL/kg, iv administered through catheter measured after 24 hrs by LC-MS/MS analysis; type: ADME, organism-based; conditions: in vivo
[4] = target: MDR1 (ABCB1, P-glycoprotein) (Homo sapiens, UniProt P08183); assay: Substrate activity at human MDR1 expressed in LLC-PK1 cells assessed as efflux ratio of permeability across basolateral to apical over apical to basolateral side at 5 uM; type: ADME, cell-based
Sequence of MDR1 (ABCB1, P-glycoprotein) (P08183 whole entry): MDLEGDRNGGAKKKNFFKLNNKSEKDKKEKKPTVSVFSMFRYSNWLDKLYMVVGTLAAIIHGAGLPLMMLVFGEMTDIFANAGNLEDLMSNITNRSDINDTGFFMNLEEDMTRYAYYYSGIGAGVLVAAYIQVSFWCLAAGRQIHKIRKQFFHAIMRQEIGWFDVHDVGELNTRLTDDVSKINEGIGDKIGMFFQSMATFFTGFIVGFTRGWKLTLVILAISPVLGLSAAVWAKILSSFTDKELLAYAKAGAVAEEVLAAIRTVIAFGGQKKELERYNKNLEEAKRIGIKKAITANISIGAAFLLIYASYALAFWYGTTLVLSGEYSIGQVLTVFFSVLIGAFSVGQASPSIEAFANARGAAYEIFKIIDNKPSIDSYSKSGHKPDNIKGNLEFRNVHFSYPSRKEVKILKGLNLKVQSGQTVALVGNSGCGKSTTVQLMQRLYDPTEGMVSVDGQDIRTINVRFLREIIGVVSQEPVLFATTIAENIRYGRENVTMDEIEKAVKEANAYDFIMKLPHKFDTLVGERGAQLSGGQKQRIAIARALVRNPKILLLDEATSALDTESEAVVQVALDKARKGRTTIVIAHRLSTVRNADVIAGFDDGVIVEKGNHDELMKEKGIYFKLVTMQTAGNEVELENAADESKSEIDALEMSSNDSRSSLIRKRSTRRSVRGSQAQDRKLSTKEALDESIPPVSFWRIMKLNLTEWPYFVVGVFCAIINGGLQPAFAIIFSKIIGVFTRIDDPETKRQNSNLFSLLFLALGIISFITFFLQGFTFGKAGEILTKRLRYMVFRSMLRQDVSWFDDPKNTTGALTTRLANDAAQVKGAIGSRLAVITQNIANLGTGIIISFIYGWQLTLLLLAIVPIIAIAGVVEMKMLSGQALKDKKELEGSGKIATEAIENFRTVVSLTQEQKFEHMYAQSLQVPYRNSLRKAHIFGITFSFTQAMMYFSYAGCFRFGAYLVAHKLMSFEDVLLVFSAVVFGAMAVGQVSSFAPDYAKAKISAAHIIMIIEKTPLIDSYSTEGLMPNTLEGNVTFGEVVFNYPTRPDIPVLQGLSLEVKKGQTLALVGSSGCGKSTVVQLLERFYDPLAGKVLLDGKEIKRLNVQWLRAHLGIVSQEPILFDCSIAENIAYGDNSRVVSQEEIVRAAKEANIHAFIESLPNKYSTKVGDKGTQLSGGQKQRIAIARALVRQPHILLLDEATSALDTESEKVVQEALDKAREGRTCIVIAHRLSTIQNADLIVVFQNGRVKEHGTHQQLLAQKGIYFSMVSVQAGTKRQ

Sequence of MAP/microtubule affinity-regulating kinase 3 (P27448 whole entry): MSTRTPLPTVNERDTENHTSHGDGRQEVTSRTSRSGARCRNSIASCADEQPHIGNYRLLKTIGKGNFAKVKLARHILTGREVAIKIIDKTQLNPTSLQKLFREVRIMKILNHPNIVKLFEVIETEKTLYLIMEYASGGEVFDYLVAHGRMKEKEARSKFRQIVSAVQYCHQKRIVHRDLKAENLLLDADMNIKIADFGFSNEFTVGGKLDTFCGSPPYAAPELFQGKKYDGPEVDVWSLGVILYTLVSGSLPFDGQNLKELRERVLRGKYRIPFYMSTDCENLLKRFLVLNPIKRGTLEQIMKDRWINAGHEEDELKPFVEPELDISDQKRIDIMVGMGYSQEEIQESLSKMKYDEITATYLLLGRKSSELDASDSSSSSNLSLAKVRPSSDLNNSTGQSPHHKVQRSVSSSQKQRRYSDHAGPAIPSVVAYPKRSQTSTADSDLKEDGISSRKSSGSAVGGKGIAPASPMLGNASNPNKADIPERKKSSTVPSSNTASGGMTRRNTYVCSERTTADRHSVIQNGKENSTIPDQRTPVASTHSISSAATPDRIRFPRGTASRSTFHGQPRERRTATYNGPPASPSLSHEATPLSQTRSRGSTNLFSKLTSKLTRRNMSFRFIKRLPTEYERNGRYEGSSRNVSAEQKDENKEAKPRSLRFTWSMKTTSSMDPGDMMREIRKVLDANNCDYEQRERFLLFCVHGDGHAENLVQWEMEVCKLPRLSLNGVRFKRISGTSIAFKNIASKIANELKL

What does the source list for `Cn1cc(-c2cnc3c(-c4csc(C(=O)N[C@@H]5CCC[C@H]5N)c4)cnn3c2)cn1` (racemic)?
IC50 [1]: 3 nM; solubility [2]: 203 µM (≈ 82.7 µg/mL)

Which results are given for `Cn1cc(-c2cnc3c(-c4csc(C(=O)NCCC(N)C(F)F)c4)cnn3c2)cn1` (stereo not drawn)?
IC50 [1]: 15 nM; clearance [3]: 16.7 mL/min/kg; efflux ratio at 5 µM [4]: 11.5

With `Cn1cc(-c2cnc3c(-c4csc(C(=O)N[C@@H]5CCC[C@H]5O)c4)cnn3c2)cn1` (racemic) as the molecule, how does the IC50 [1] read?
The IC50 was 10 nM.

For `CCNC(=O)c1cc(-c2cnn3cc(-c4cnn(C)c4)cnc23)cs1`, which IC50 [1] is on record?
Its IC50 is 129 nM.

What does the source list for `Cn1cc(-c2cnc3c(-c4csc(C(=O)N[C@@H]5CCC[C@@H]5N)c4)cnn3c2)cn1` (racemic)?
IC50 [1]: 2 nM; solubility [2]: 69 µM (≈ 28.1 µg/mL)

For `COCCOc1ccc(-c2cnc3c(-c4csc(C(=O)NCC(F)(F)F)c4)cnn3c2)cc1`, which IC50 [1] is on record?
The IC50 was 5 nM.

Which IC50 [1] does the source give for `Cc1sc(C(=O)N[C@H]2CCCC(F)(F)[C@H]2N)cc1-c1cnn2cc(-c3cnn(C)c3)cnc12` here?
Its IC50 is 130 nM.

For `Cn1cc(-c2cnc3c(-c4csc(C(=O)N[C@@H]5CCC[C@@H]5O)c4)cnn3c2)cn1` (racemic), which IC50 [1] is on record?
The IC50 was 43 nM.

With `Cn1cnc(-c2cnc3c(-c4csc(C(=O)NCC(F)(F)F)c4)cnn3c2)c1` as the molecule, how does the IC50 [1] read?
Its IC50 is 13 nM.

With `Cn1cc(-c2cnc3c(-c4csc(C(=O)N[C@@H]5CCCC[C@H]5N)c4)cnn3c2)cn1` (racemic) as the molecule, how does the IC50 [1] read?
The IC50 was 1 nM.

What about the solubility [2] of the same molecule?
The solubility was 193 µM (≈ 81.4 µg/mL).

What does the source list for `Cc1sc(C(=O)N[C@@H]2[C@H](N)CCCC2(F)F)cc1-c1cnn2cccnc12`?
IC50 [1]: 2.4 nM; efflux ratio at 5 µM [4]: 10; solubility [2]: 200 µM (≈ 78.3 µg/mL)

For `O=C(NCC(F)(F)F)c1cc(-c2cnn3cc(-c4cccnc4)cnc23)cs1`, which IC50 [1] is on record?
The IC50 was 70 nM.

For `O=C(NCC(F)(F)F)c1cc(-c2cnn3cc(-c4cn[nH]c4)cnc23)cs1`, which IC50 [1] is on record?
The IC50 was 99 nM.

With `Cn1cc(-c2cnc3c(-c4csc(C(=O)N[C@@H]5CCCC[C@H]5O)c4)cnn3c2)cn1` (mixture of isomers) as the molecule, how does the IC50 [1] read?
The IC50 was 24 nM.

And the solubility [2]?
The solubility was 6 µM.

For `Cn1cc(-c2cnc3c(-c4csc(C(=O)NC(CO)C5CC5)c4)cnn3c2)cn1` (stereo not drawn), which IC50 [1] is on record?
Its IC50 is 9 nM.

With `Cn1cc(-c2cnc3c(-c4csc(C(=O)NCCC(N)C(F)(F)F)c4)cnn3c2)cn1` (stereo not drawn) as the molecule, how does the IC50 [1] read?
The IC50 was 10 nM.

And the clearance [3]?
Its clearance is 14 mL/min/kg.

What about the efflux ratio at 5 µM [4] of the same molecule?
Its efflux ratio at 5 µM is 4.8.

With `Cn1cc(-c2cnc3c(-c4csc(C(=O)NCCC(N)CF)c4)cnn3c2)cn1` (stereo not drawn) as the molecule, how does the IC50 [1] read?
The IC50 was 22 nM.

And the efflux ratio at 5 µM [4]?
The efflux ratio at 5 µM was 16.7.

With `Cn1cc(-c2cnc3c(-c4csc(C(=O)N[C@@H]5CCCC[C@@H]5O)c4)cnn3c2)cn1` (racemic) as the molecule, how does the IC50 [1] read?
The IC50 was 9 nM.

With `Cc1sc(C(=O)N[C@@H]2CCCC[C@@H]2N)cc1-c1cnn2cc(-c3cnn(C)c3)cnc12` (racemic) as the molecule, how does the IC50 [1] read?
The IC50 was 1.3 nM.

What about the solubility [2] of the same molecule?
Its solubility is 192 µM (≈ 83.6 µg/mL).

Which IC50 [1] does the source give for `Cc1sc(C(=O)N[C@@H]2[C@H](N)CCCC2(F)F)cc1-c1cnn2cc(-c3cnn(C)c3)cnc12` here?
The IC50 was < 0.25 nM.

And the solubility [2]?
Its solubility is 31 µM (≈ 14.6 µg/mL).
